According to patent publication US12247015B2, “3-amino-4H-benzo[e][1,2,4]thiadiazine 1,1-dioxide derivatives as inhibitors of MRGX2” (Solent Therapeutics, LLC, priority 2019, dated 2025):

Assays:
[1] = target: hMRGX2 (CHO-K1 cells overexpressing MRGX2) (Homo sapiens (Human), UniProt Q96LB1); assay: In vitro inhibition (EC50) of intracellular calcium flux, FLIPR Tetra, substance P stimulation; format: cell-based; conditions: stimulated with MRGX2 ligand substance P, FLIPR Calcium 5, read-out: hMRGX2 Cellular Potency (pEC50) (converted)
Outline: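 CHO-K1 cells overexpressing human MRGX2, loaded with Calcium 5 dye for 30 min at 37 °C, then given compound (11-point, top 10 μM).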

human MRGX2 receptor = human MRGX2 receptor (Homo sapiens (Human), UniProt Q96LB1); assay: In vitro radioligand binding assay (Kd); conditions: membrane from SF9 cells overexpressing human MRGX2; 3H-labeled ligand; pH 7.4, room temperature, 60 minutes
Procedure: In vitro Radioligand Binding Assay (Kd)
Equilibrium dissociation constants, Kd, for many of the compounds described in the Examples section (“test compounds”) are determined in the presence cellular membrane prepared from SF9 cell lines overexpressing the human MRGX2 receptor. The assay is carried out in a 96-well plate (Greiner V-Bottom #651201). […] The assay mixtures, which comprise MRGX2 receptor, radiolabeled ligand and test compound, are incubated at room temperature (˜22° C.) for 60 minutes to reach equilibrium. After incubation, the assay mixtures are collected on a filter mat (Filtermat A, Perkin Elmer) using a cell harvester (Harvester 96, TOMTEC). The filter mat is completely dried. A solid scintillant (Meltilex, Perkin Elmer) is added to each filter membrane and the level of radioactivity (“Signal”) from each well (assay mixture) is recorded using a scintillation counter (Trilux Microbeta, PerkinElmer). Kd is determined by curve-fitting the dose response data ([I], Signal) for each set of samples to the equation,
[formula] where [I] is the concentration of the test compound. The data are reported as pKd

Chain of human MRGX2 receptor (Q96LB1 whole entry): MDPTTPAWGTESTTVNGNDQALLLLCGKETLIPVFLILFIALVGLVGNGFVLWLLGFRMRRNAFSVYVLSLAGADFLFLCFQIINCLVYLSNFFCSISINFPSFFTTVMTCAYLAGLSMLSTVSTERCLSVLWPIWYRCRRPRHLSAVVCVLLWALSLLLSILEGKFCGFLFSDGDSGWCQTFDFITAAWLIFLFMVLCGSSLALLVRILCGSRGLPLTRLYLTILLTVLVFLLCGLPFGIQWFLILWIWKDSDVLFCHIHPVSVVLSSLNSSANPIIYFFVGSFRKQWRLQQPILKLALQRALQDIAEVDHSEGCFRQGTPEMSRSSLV
Chain of hMRGX2 (CHO-K1 cells overexpressing MRGX2) (Q96LB1 whole entry): as above

Row | SMILES | EC50 [1] [nM] | hMRGX2 Binding Affinity (pKd) (human MRGX2 receptor)
1 | O=S1(=O)N=C(NCC2CC2)Nc2c(-c3cccc(F)c3Cl)cc(F)cc21 [Example 7, 5-(2-chloro-3-fluorophenyl)-3-((cyclopropylmethyl)amino)-7-fluoro-4H-benzo[e][1,2,4]thiadiazine 1,1-dioxide] | 23.3 | 7.27
2 | COCCNC1=NS(=O)(=O)c2cccc(-c3cccc(F)c3Cl)c2N1 [Example 2, 5-(2-chloro-3-fluorophenyl)-3-((2-methoxyethyl)amino)-4H-benzo[e][1,2,4]thiadiazine 1,1-dioxide] | 51.9 | 6.984
3 | O=S1(=O)N=C(NCC(F)F)Nc2c(-c3cccc(F)c3Cl)cccc21 [Example 34, 5-(2-chloro-3-fluorophenyl)-3-((2,2-difluoroethyl)amino)-4H-benzo[e][1,2,4]thiadiazine 1,1-dioxide] | 38.5 | 7.025
4 | CCNC1=NS(=O)(=O)c2cc(F)cc(-c3cccc(F)c3Cl)c2N1 [Example 6, 5-(2-chloro-3-fluorophenyl)-3-(ethylamino)-7-fluoro-4H-benzo[e][1,2,4]thiadiazine 1,1-dioxide] | 21.6 | 6.78
5 | O=S1(=O)N=C(NCc2ncccc2F)Nc2c(-c3cccc(F)c3Cl)cccc21 [Example 12, 5-(2-chloro-3-fluorophenyl)-3-(((3-fluoropyridin-2-yl)methyl)amino)-4H-benzo[e][1,2,4]thiadiazine 1,1-dioxide] | 13.6 | 7.45
6 | CCNC1=NS(=O)(=O)c2cccc(-c3cccc(F)c3Cl)c2N1 [Example 39, 5-(2-chloro-3-fluorophenyl)-3-(ethylamino)-4H-benzo[e][1,2,4]thiadiazine 1,1-dioxide] | 52 | 7.055
7 | COCCNC1=NS(=O)(=O)c2cccc(-c3ccccc3Cl)c2N1 [Example 35, 5-(2-chlorophenyl)-3-((2-methoxyethyl)amino)-4H-benzo[e][1,2,4]thiadiazine 1,1-dioxide] | 92 | 4.7
8 | COCCNC1=NS(=O)(=O)c2cc(F)cc(-c3cccc(F)c3Cl)c2N1 [Example 4, 5-(2-chloro-3-fluorophenyl)-7-fluoro-3-((2-methoxyethyl)amino)-4H-benzo[e][1,2,4]thiadiazine 1,1-dioxide] | 15.4 | 6.975
9 | CNC1=NS(=O)(=O)c2cccc(-c3cccc(F)c3Cl)c2N1 [Example 1, 5-(2-chloro-3-fluorophenyl)-3-(methylamino)-4H-benzo[e][1,2,4]thiadiazine 1,1-dioxide] | 69.3 | 6.724
10 | O=S1(=O)N=C(NCc2ncco2)Nc2c(-c3cccc(F)c3Cl)cccc21 [Example 28, 5-(2-chloro-3-fluorophenyl)-3-((oxazol-2-ylmethyl)amino)-4H-benzo[e][1,2,4]thiadiazine 1,1-dioxide] | 24.1 | 7.03

Continued, values first:

Row | EC50 [1] [nM] | hMRGX2 Binding Affinity (pKd) (human MRGX2 receptor) | SMILES
11 | 51.1 | 6.67 | O=S1(=O)N=C(NCCF)Nc2c(-c3cccc(F)c3Cl)cccc21 [Example 147, 5-(2-chloro-3-fluorophenyl)-3-((2-fluoroethyl)amino)-4H-benzo[e][1,2,4]thiadiazine 1,1-dioxide]
12 | 119 | 6.06 | CC(C)c1ccc(NC2=NS(=O)(=O)c3cccc(-c4cnn(C5CCC5)c4)c3N2)cc1 [Example 105, 5-(1-cyclobutyl-1H-pyrazol-4-yl)-3-((4-isopropylphenyl)amino)-4H-benzo[e][1,2,4]thiadiazine 1,1-dioxide]
13 | 29.4 | 7.22 | O=S1(=O)N=C(NCc2ncccn2)Nc2c(-c3cccc(F)c3Cl)cccc21 [Example 66, 5-(2-chloro-3-fluorophenyl)-3-((pyrimidin-2-ylmethyl)amino)-4H-benzo[e][1,2,4]thiadiazine 1,1-dioxide]
14 | 262 | 6.095 | Cc1c(-c2cccc3c2NC(Nc2ccc(C(C)C)cc2)=NS3(=O)=O)cnn1C [Example 114, 5-(1,5-dimethyl-1H-pyrazol-4-yl)-3-((4-isopropylphenyl)amino)-4H-benzo[e][1,2,4]thiadiazine 1,1-dioxide]
15 | 79.1 | 6.54 | Cc1ccccc1-c1cccc2c1NC(NCc1ccco1)=NS2(=O)=O [Example 137, 3-((furan-2-ylmethyl)amino)-5-(o-tolyl)-4H-benzo[e][1,2,4]thiadiazine 1,1-dioxide]
16 | 102 | 6.47 | CNC1=NS(=O)(=O)c2cccc(-c3ccccc3Cl)c2N1 [Example 43, 5-(2-chlorophenyl)-3-(methylamino)-4H-benzo[e][1,2,4]thiadiazine 1,1-dioxide]
17 | 69.2 | 6.35 | CNC1=NS(=O)(=O)c2cccc(-c3cccc(F)c3C#N)c2N1 [Example 89, 2-fluoro-6-(3-(methylamino)-1,1-dioxido-4H-benzo[e][1,2,4]thiadiazin-5-yl)benzonitrile]
18 | 474 | 5.95 | COCc1cccc2c1NC(Nc1ccc(C(C)C)cc1)=NS2(=O)=O [Example 169, 3-((4-isopropylphenyl)amino)-5-(methoxymethyl)-4H-benzo[e][1,2,4]thiadiazine 1,1-dioxide]
19 | 132 | 6.52 | CC(C)c1ccc(NC2=NS(=O)(=O)c3cccc(-c4cnn(C)c4)c3N2)cc1 [Example 107, 3-((4-isopropylphenyl)amino)-5-(1-methyl-1H-pyrazol-4-yl)-4H-benzo[e][1,2,4]thiadiazine 1,1-dioxide]
20 | 119 | 6.535 | CCc1ccc(NC2=NS(=O)(=O)c3cccc(-c4cnn(C)c4)c3N2)cc1 [Example 136, 3-((4-ethylphenyl)amino)-5-(1-methyl-1H-pyrazol-4-yl)-4H-benzo[e][1,2,4]thiadiazine 1,1-dioxide]
21 | 106 | 6.575 | CC(C)c1ccc(NC2=NS(=O)(=O)c3cccc(C4CC4)c3N2)cc1 [Example 109, 5-cyclopropyl-3-((4-isopropylphenyl)amino)-4H-benzo[e][1,2,4]thiadiazine 1,1-dioxide]
22 | 51.2 | 6.755 | Cc1nn(C)cc1-c1cccc2c1NC(Nc1ccc(C(C)C)cc1)=NS2(=O)=O [Example 103, 5-(1,3-dimethyl-1H-pyrazol-4-yl)-3-((4-isopropylphenyl)amino)-4H-benzo[e][1,2,4]thiadiaazne 1,1-dioxide]
23 | 78.2 | 6.545 | COCCNC1=NS(=O)(=O)c2cccc(-c3cccc(F)c3C#N)c2N1 [Example 125, 2-fluoro-6-(3-((2-methoxyethyl)amino)-1,1-dioxido-4H-benzo[e][1,2,4]thiadiazin-5-yl)benzonitrile]
24 | 100 | 6.51 | Cc1ccccc1-c1cccc2c1NC(NCc1ccccn1)=NS2(=O)=O [Example 162, 3-((pyridin-2-ylmethyl)amino)-5-(o-tolyl)-4H-benzo[e][1,2,4]thiadiazine 1,1-dioxide]
